Assay results as given in ChEMBL document CHEMBL1201862, “PubChem BioAssay data set” (2004).
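Compound exposure: 48 hours, 5 concentrations, 96-well plates. GI50 is the concentration that inhibits growth by half.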 Calls of active or inactive are those of the source. Cut-off read from the data, not from the text of the source: active = GI50 up to about 1.1 µM and inactive = higher.

Tests used:
Assay in all cases: DTP human tumour cell line panel, 48 h
[1] = test system: CCRF-CEM
[2] = test system: MOLT-4
[3] = test system: HL-60
[4] = test system: NCI-H23
[5] = test system: SF-539
[6] = test system: SK-MEL-5
[7] = test system: SK-OV-3
[8] = test system: NCI-H522
[9] = test system: OVCAR-3
[10] = test system: ACHN
[11] = test system: OVCAR-8
[12] = test system: HOP-92
[13] = test system: M14
[14] = test system: SF-268
[15] = test system: SK-MEL-28
[16] = test system: HOP-62

Measured: GI50

COc1ccc2c(c1)CCc1c-2nc2cc3c(cc2c1O)OCO3
inactive: [1] > 100 µM | [2] > 100 µM | [3] > 100 µM | [4] > 100 µM | [5] > 100 µM | [6] > 100 µM | [7] > 100 µM | [8] > 100 µM | [9] > 100 µM | [10] > 100 µM | [11] > 100 µM | [12] > 100 µM | [13] > 100 µM | [14] > 100 µM | [15] > 100 µM | [16] > 100 µM

CSc1nc(O)c2cn(Cc3ccccc3)nc2n1
inactive: [1] 44 µM | [2] > 100 µM | [3] > 100 µM | [4] > 100 µM | [5] > 100 µM | [6] > 100 µM | [7] > 100 µM | [8] > 100 µM | [9] > 100 µM | [10] > 76.4 µM | [11] > 100 µM | [12] 71.6 µM | [13] > 91.6 µM | [14] > 100 µM | [15] > 100 µM | [16] > 100 µM

CN(O)C(=O)Cc1ccccc1
inactive: [1] > 100 µM | [2] > 100 µM | [3] > 100 µM | [4] > 100 µM | [5] > 100 µM | [6] > 100 µM | [7] > 100 µM | [8] > 100 µM | [9] > 100 µM | [10] > 100 µM | [11] > 100 µM | [12] > 100 µM | [13] > 100 µM | [14] > 100 µM | [15] > 100 µM | [16] > 100 µM

CC(C)(C)c1ccc2c(c1)C(O)(c1ccccc1)c1cc(C(C)(C)C)ccc1C2(O)C(F)(F)F (configuration not stated)
inactive: [1] 2.13 µM | [2] 1.77 µM | [3] 2.29 µM | [4] 1.81 µM | [5] 1.74 µM | [7] 3.24 µM | [8] 1.64 µM | [9] 1.94 µM | [10] 2.14 µM | [11] 2.12 µM | [12] 1.97 µM | [13] 1.92 µM | [14] 2.27 µM | [15] 2.09 µM | [16] 1.29 µM

CC(O)C(N/C=C1/N=C(c2ccccc2)OC1=O)C(=O)O (configuration not stated)
inactive: [1] > 100 µM | [3] 10 µM | [4] > 100 µM | [5] > 100 µM | [6] > 100 µM | [7] > 100 µM | [8] > 100 µM | [9] > 100 µM | [10] > 100 µM | [11] > 100 µM | [12] > 100 µM | [13] > 100 µM | [14] > 100 µM | [15] > 100 µM | [16] > 100 µM

CCOC(=O)c1nc(C)oc1C(F)(F)F
inactive: [1] > 100 µM | [2] > 100 µM | [3] > 100 µM | [4] > 100 µM | [5] > 100 µM | [7] > 100 µM | [8] > 100 µM | [9] > 100 µM | [10] > 100 µM | [11] > 100 µM | [12] > 100 µM | [13] > 100 µM | [14] > 100 µM | [15] > 100 µM | [16] > 100 µM

O=C(Nc1ccn(CCI)c(=O)n1)c1ccccc1
inactive: [1] > 100 µM | [3] > 100 µM | [5] > 100 µM | [6] > 100 µM | [7] > 100 µM | [8] > 100 µM | [9] > 100 µM | [10] > 100 µM | [11] > 100 µM | [12] > 100 µM | [13] > 100 µM | [14] > 100 µM | [15] > 100 µM | [16] > 100 µM
